Measurements published in patent publication US20230133445A1, “COMPOSITIONS AND METHODS FOR IMPROVING THE APPEARANCE OF SKIN” (L'Oreal, priority 2021, published 2023).

Columns and labels:
[1] = type: in vitro ADME, human
Description: Human skin samples were obtained from abdominal surgery. Excess subcutaneous fat was removed, if necessary. Skin samples were excised and cut into pieces of around 2 cm×2 cm. Thickness was measured and transepidermal water loss (TEWL) was measured. The human skin was included in the study if the TEWL was between 0.5 and 13 g/m^2/h for abdominal skin. The 2 cm^2 skin samples were kept in a static cell in a diffusion chamber in a Franz cell horizontal cell clamp system (Crown Glass Company, Inc.) and maintained at a constant temperature of 32° C.±1° C. The static cells consist of a donor chamber and a receptor chamber with a 7 mL receptor fluid compartment separated by the skin.
The cells were placed on a magnetic stirrer which was integrated with a fixed temperature water bath maintained in order to have 32° C.±1° C. at the skin surface. The receptor compartment of each cell was filled with the receptor fluid (PBS) and was continuously stirred. The skin samples were placed on the receptor compartment. The donor compartment was then placed onto the skin samples. […]
A composition containing 2 wt % acetyl trifluoromethylphenyl valylglycine was applied to the skin sample at a rate of 10 mg/cell using a positive displacement pipette and the exact amount applied was determined by weight then recorded (Sartorius Entris II Essential Analytical balance, Thermo-Fisher). […]
The skin was then stripped with consistent weight and time of application. […] The strips samples were stored with solvent (methanol) at −20° C. for a maximum of 5 days before being analyzed. […] The RS vials were stored with solvent (methanol) at −20° C. for a maximum of 7 days before being analyzed. Dermis and epidermis samples were stored with solvent at −20° C. for a maximum of 7 days before being analyzed. The receptor fluid was taken 16 hours after the application and the samples were analyzed.
Receptor fluid samples were stored at −20° C. for a maximum of 6 days before being analyzed. […] Samples were stored at −20° C. for a maximum of 5 days before being analyzed.
The final extract was analyzed by LC-MS/MS. […]

Neutrophil Elastase = target: T1, Neutrophil Elastase (Homo sapiens, UniProt P08246); experiment: Neutrophil Elastase (NE) Inhibition in tubo assay (MAK213, Sigma-Aldrich); type: biochemical
T1 construct: purchased Sigma-Aldrich MAK213
T1 sequence (P08246 30-267): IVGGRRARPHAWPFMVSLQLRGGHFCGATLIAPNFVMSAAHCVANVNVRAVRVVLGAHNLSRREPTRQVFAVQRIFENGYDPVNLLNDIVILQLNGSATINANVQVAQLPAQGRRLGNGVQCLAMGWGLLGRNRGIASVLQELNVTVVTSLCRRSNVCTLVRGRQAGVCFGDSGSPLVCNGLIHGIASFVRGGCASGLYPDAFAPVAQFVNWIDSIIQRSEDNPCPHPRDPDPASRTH
Description: The ability of acetyl trifluoromethylphenyl valylglycine (“ATV”), glycolic acid, and/or lactic acid to inhibit the elastin-hydrolyzing effect of elastase was evaluated in a Neutrophil Elastase (NE) Inhibition in tubo assay (MAK213, Sigma-Aldrich, MO). Neutrophil Elastase activity was measured by hydrolyzing the substrate to yield a fluorescent product (λex=400/λem=505 nm) proportional to the enzymatic activity present.
A 4× sample inhibitor solution of the each tested chemical peeling agent and acetyl trifluoromethylphenyl valylglycine, and every combination provided in FIGS. 1 and 2 was prepared. The inhibitor/positive control (Elastase Inhibitor, SPCK, AG Scientific), enzyme/negative control (contains elastase), neutrophil elastase, and substrate solutions were prepared. The test compounds, controls, and neutrophil elastase were added to a 96-well plate, protected from light, and incubated at 37° C. for 5 minutes. The elastin substrate was then added to each well and the fluorescence (FLU, λex=400 nm, λem=505 nm) was measured every minute for thirty minutes at 37° C. The slope of the plot (time vs FLU) was taken. Relative inhibition was calculated as follows: […]

For CC(=O)N(c1cccc(C(F)(F)F)c1)C(C(=O)NCC(=O)O)C(C)C (stereo not shown) [ATV, acetyl trifluoromethylphenyl valylglycine], the “amount penetrated through the stratum corneum” value [1] was “about 0.08 wt %”, the “amount penetrating past the stratum corneum barrier into epidermis, dermis and receptor fluid” value [1] was “about 0.8%” and the “dermal dose of the 2 wt % preparation” value [1] was “at least 0.08 wt %”. For the same compound, the “Average Inhibition (%)” value (Neutrophil Elastase; Table 1, 0.0125 wt % ATV) was 12.49%, the “Average Inhibition (%)” value (Neutrophil Elastase; Table 1, 0.025 wt % ATV) was 14.97% and the “Average Inhibition (%)” value (Neutrophil Elastase; Table 1, 0.0625 wt % ATV) was 18.36%. For the same compound, the “Average Inhibition (%)” value (Neutrophil Elastase; Table 2, 0.0125 wt % ATV) was 4.93%, the “Average Inhibition (%)” value (Neutrophil Elastase; Table 2, 0.025 wt % ATV) was 9.311% and the “Average Inhibition (%)” value (Neutrophil Elastase; Table 2, 0.0625 wt % ATV) was 11.96%.

With O=C(O)CO [Glycolic Acid, reference compound] the “Average Inhibition (%)” value (Neutrophil Elastase; Table 1, 0.125 wt % Glycolic Acid) was 15.8949% and the “Average Inhibition (%)” value (Neutrophil Elastase; Table 1, 0.625 wt % Glycolic Acid) was 23.89%.

For CC(O)C(=O)O (stereo not shown) [Lactic Acid, reference compound], the “Average Inhibition (%)” value (Neutrophil Elastase; Table 2, 0.125 wt % Lactic Acid) was 8.507% and the “Average Inhibition (%)” value (Neutrophil Elastase; Table 2, 0.625 wt % Lactic Acid) was 24.09%.
